Converted amounts (≈) assume the structure as drawn.
What was measured:
[1] = test system: AqSynJ59 strain; details: cut-off used for AqSynJ59 (Lactobacillus plantarum); cited from earlier work
[2] = test system: AqSynRMH69 strain; assay: In vitro test of minimal inhibitory concentration (MIC) of antibiotics; type: cell-based, Lactobacillus reuteri; details: for MIC, LSM: LAB susceptibility test medium pH 6.7, unit assumed; for Category: MIC compared with EFSA cut-off
Experimental: The evaluated antibiotics may be the following: Ampicillin, Vancomicin, Gentamicin, Kanamycin, Streptomycin, Eritromycin, Clindamycin, Tetracyclin and Chloranphenicol. An in vitro test of minimal inhibitory concentration (MIC) aimed to evaluate antibiotic resistances was performed for the above strains (AqSynJ59 and […]69). The evaluated antibiotics were the following: Ampicillin, Vancomicin, Gentamicin, Kanamycin, Streptomycin, Clindamycin, Tetracyclin and Chloranphenicol. The microbiological cut-off values that were used for evaluating the antibiotic resistances of the strains of the present invention are the ones defined in the “Guidance on the assessment of bacterial susceptibility to antimicrobials of human and veterinary importance”, EFSA Panel on Additives and Products or Substances used in Animal Feed ([…]), European Food Safety Authority (EFSA), Parma, Italy.

[3] = test system: AqSynRMH69 strain; details: cut-off used for AqSynRMH69 (Lactobacillus reuteri); cited from earlier work
[4] = test system: AqSynJ59 strain; assay: In vitro test of minimal inhibitory concentration (MIC) of antibiotics; type: cell-based, Lactobacillus plantarum; details: for MIC, LSM: LAB susceptibility test medium pH 6.7, unit assumed; for Category: MIC compared with EFSA cut-off
Experimental: An in vitro test of minimal inhibitory concentration (MIC) aimed to evaluate antibiotic resistances was performed for the above strains (AqSynJ59 and […]69). […] The microbiological cut-off values that were used for evaluating the antibiotic resistances of the strains of the present invention are the ones defined in the “Guidance on the assessment of bacterial susceptibility to antimicrobials of human and veterinary importance”, EFSA Panel on Additives and Products or Substances used in Animal Feed ([…]), European Food Safety Authority (EFSA), Parma, Italy.

| Molecule | EFSA (2012) values (microbiological cut-off) [1] | MIC, LSM [2] [µg/mL] | Category [2] | EFSA (2012) values (microbiological cut-off) [3] | MIC, LSM [4] [µg/mL] | Category [4] |
| --- | --- | --- | --- | --- | --- | --- |
| Gentamicin | 16 | 2 | S | 8 | 1 | S |
| CN(C)[C@@H]1C(O)=C(C(N)=O)C(=O)[C@@]2(O)C(O)=C3C(=O)c4c(O)cccc4[C@@](C)(O)[C@H]3C[C@@H]12 [Tetracycline] |  | 4 (≈ 9 µM) | S |  | 4 (≈ 9 µM) | S |
| CCC[C@@H]1C[C@@H](C(=O)N[C@@H]([C@H]2O[C@H](SC)[C@H](O)[C@@H](O)[C@H]2O)[C@H](C)Cl)N(C)C1 [Clindamycin] |  | 0.125 (≈ 0.294 µM) | S |  | 0.125 (≈ 0.294 µM) | S |
| CC1(C)S[C@@H]2[C@H](NC(=O)[C@H](N)c3ccccc3)C(=O)N2[C@H]1C(=O)O [Ampicillin] | 2 | 0.25 (≈ 0.715 µM) | S | 2 |  |  |
| O=C(N[C@H](CO)[C@H](O)c1ccc([N+](=O)[O-])cc1)C(Cl)Cl [Chloramphenicol] | 8 | 2 (≈ 6.19 µM) | S | 4 | 2 (≈ 6.19 µM) | S |
| CN[C@H](CC(C)C)C(=O)N[C@H]1C(=O)N[C@@H](CC(N)=O)C(=O)N[C@H]2C(=O)N[C@H]3C(=O)N[C@H](C(=O)N[C@H](C(=O)O)c4cc(O)cc(O)c4-c4cc3ccc4O)[C@H](O)c3ccc(c(Cl)c3)Oc3cc2cc(c3O[C@@H]2O[C@H](CO)[C@@H](O)[C@H](O)[C@H]2O[C@H]2C[C@](C)(N)[C@H](O)[C@H](C)O2)Oc2ccc(cc2Cl)[C@H]1O [Vancomycin] |  | 512 (≈ 353 µM) | R |  | 512 (≈ 353 µM) |  |
| NC[C@H]1O[C@H](O[C@H]2[C@H](O)[C@@H](O[C@H]3O[C@H](CO)[C@@H](O)[C@H](N)[C@H]3O)[C@H](N)C[C@@H]2N)[C@H](O)[C@@H](O)[C@@H]1O [Kanamycin] |  | 64 (≈ 132 µM) | S |  | 64 (≈ 132 µM) | S |
| [H]/N=C(/N)N[C@H]1[C@H](O)[C@@H](O)[C@H](O[C@@H]2O[C@@H](C)[C@](O)(C=O)[C@H]2O[C@@H]2O[C@@H](CO)[C@H](O)[C@@H](O)[C@@H]2NC)[C@@H](N/C(N)=N\[H])[C@@H]1O [Streptomycin] |  | 32 (≈ 55 µM) | S | 64 | 32 (≈ 55 µM) |  |

From patent US10179153B2, “Probiotic and prebiotic compositions” (AQUILON CYL SOCIEDAD LIMITADA, priority 2014, dated 2019)
